This is an account of results in US8148391B2 (Cephalon, Inc., priority 2006, dated 2012).

Molecules are shown by their SMILES. Read-outs that look alike come from different tables or passages of the source. Some results are limits rather than exact numbers.

In assay [1] the target is T1, baculovirus-expressed ALK (Homo sapiens, UniProt Q9UM73).
T1 construct: host or cells: baculovirus expression system
Briefly: ALK Kinase Assay (ELISA-type, time-resolved fluorescence). It counts as biochemical. The gist of the method: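 Plates coated with phospholipase C-γ substrate (10 μg/mL in TBS); reaction started with 30 ng/ml ALK and run 15 min at 37° C. Phosphorylated substrate detected with Eu-N1-labeled PT66 antibody. IC50 from sigmoidal variable-slope fit of percent inhibition vs log concentration.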

Assay [2] deals with T2, c-Met (cytoplasmic domain) (Homo sapiens, UniProt P08581).
T2 construct: 10 ng/mL c-Met (cytoplasmic domain, Invitrogen Corporation #PV3143); purchased Invitrogen Corporation PV3143
Briefly: c-Met Kinase Assay (same methods as for ALK, with modifications). The class given is biochemical. The essentials: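 Plates were coated with phospholipase C-γ substrate (10 μg/mL) in TBS, and the reaction was started with 10 ng/mL c-Met cytoplasmic domain and run 15 min at 37 °C. Phosphoproduct was detected with Eu-N1-labelled PT66 antibody. IC50 came from a variable-slope sigmoidal fit of percent inhibition vs log concentration.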

Where [3] appears, read: ALK kinase inhibition, 1 μM ATP, read-out: ALK Activity.
Setting [4] is: c-Met kinase inhibition, 1 μM ATP, read-out: cMet Activity.
Setting [5] is: 1 μM ATP (Km level), read-out: ALK Activity (ALK Kinase Inhibition, IC50).
The mark [6] stands for this setting: 1 μM ATP (Km level), read-out: cMet Activity (c-Met Kinase Inhibition, IC50).
[7] abbreviates: ALK kinase inhibition, 1 μM ATP (Km level), read-out: ALK Activity.
The mark [8] stands for this setting: c-Met kinase inhibition, 1 μM ATP (Km level), read-out: cMet Activity.
[9] abbreviates: 1 μM ATP (Km level), 30 ng/ml ALK, 37° C., 15 minutes, read-out: ALK Activity (ALK kinase inhibition, IC50 class).
The mark [10] stands for this setting: 1 μM ATP (Km level), 10 ng/mL c-Met, read-out: cMet Activity (c-Met kinase inhibition, IC50 class).

T2 sequence (P08581 956-1390 limits assumed): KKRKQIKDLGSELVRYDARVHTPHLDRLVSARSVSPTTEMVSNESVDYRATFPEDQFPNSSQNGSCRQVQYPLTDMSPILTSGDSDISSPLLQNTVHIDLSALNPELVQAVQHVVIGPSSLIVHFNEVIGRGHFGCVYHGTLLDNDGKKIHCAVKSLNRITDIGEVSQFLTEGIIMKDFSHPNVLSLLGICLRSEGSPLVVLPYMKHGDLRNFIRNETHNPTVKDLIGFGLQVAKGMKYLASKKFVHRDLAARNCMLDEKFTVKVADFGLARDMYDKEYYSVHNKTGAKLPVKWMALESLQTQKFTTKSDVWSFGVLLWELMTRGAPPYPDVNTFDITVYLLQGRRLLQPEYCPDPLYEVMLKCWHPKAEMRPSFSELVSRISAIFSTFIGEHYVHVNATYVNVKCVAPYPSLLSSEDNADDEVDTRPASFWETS
T1 sequence (Q9UM73 19-1620): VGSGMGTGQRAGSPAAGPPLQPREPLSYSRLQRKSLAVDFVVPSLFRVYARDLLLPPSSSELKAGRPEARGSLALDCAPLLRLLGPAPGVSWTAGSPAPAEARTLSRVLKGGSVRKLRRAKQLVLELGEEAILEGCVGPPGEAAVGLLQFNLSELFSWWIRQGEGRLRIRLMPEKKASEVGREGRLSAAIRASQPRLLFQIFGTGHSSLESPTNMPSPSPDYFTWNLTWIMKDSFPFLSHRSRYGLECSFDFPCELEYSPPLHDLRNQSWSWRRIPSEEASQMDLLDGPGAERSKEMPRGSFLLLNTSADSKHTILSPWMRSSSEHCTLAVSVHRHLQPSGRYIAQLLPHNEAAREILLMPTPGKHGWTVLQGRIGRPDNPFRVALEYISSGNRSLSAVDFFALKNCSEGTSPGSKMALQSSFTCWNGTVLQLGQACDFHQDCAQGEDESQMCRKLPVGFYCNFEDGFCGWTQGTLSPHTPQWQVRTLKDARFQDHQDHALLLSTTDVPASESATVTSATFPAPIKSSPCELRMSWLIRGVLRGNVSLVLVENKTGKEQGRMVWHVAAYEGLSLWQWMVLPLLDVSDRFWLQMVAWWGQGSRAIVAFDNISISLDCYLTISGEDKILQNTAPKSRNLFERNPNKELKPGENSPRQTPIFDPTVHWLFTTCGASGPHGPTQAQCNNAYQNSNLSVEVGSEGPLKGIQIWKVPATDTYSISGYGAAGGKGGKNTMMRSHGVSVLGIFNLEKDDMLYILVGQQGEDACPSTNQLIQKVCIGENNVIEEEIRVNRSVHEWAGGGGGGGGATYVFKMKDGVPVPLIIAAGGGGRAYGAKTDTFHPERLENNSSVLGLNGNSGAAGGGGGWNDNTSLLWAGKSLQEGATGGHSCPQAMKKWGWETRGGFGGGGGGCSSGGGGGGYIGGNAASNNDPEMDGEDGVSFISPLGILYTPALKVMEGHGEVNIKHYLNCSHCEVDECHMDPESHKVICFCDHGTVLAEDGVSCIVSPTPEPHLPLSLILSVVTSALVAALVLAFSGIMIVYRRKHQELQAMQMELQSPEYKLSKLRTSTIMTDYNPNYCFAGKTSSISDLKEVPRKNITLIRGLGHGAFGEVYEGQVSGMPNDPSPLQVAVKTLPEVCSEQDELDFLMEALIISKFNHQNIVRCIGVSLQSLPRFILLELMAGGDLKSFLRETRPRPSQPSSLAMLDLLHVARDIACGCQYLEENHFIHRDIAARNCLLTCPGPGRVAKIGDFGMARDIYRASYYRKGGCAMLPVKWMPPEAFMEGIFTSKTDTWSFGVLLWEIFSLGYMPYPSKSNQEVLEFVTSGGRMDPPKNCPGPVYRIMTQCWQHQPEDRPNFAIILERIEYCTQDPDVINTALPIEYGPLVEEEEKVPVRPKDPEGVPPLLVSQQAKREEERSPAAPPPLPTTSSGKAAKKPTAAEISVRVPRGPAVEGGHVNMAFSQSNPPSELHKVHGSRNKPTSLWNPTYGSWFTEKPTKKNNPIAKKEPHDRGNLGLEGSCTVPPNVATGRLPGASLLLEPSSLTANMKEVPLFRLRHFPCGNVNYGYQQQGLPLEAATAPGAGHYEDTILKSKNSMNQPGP

On to `Cc1nnc(-c2cccc(F)c2Nc2nc(Nc3ccc4c(c3)CCOC(=O)N4C)ncc2Cl)o1` [Example 1787, 2-{5-Chloro-4-[2-fluoro-6-(5-methyl-[1,3,4]oxadiazol-2-yl)-phenylamino]-pyrimidin-2-ylamino}-5-methyl-8,9-dihydro-5H-7-oxa-5-aza-benzocyclohepten-6-one], for which the IC50 fell in the range of 1000 to 10000 nM in assay [1] (setting [3]) and 100 to 1000 nM in assay [2] (setting [4]).
The like results for `CCN1C(=O)OCCc2cc(Nc3ncc(Cl)c(Nc4c(F)cccc4C(=O)NC)n3)ccc21` [Example 1746, 2-[5-chloro-2-(5-ethyl-6-oxo-5,6,8,9-tetrahydro-7-oxa-5-aza-benzocyclohepten-2-ylamino)-pyrimidin-4-ylamino]-3-fluoro-N-methyl-benzamide] were, in that order, below 100 nM and below 100 nM.
In the case of `CCN1CCOc2cc(Nc3ncc(Cl)c(Nc4ccccc4C(=O)NC)n3)ccc2C1=O` [Example 515, 2-[5-Chloro-2-(4-ethyl-5-oxo-2,3,4,5-tetrahydro-benzo[f][1,4]oxazepin-8-ylamino)-pyrimidin-4-ylamino]-N-methyl-benzamide], the IC50 in assay [1] (setting [5]) and in assay [2] (setting [6]) was below 100 nM throughout.
`CN1CCNCc2cc(Nc3ncc(Cl)c(Nc4ccccc4NS(C)(=O)=O)n3)ccc21` [Example 421, N-{2-[5-Chloro-2-(1-methyl-2,3,4,5-tetrahydro-1H-benzo[e][1,4]diazepin-7-ylamino)-pyrimidin-4-ylamino]-phenyl}-methanesulfonamide]: the IC50 was below 100 nM in assay [1] (setting [7]) and 100 to 1000 nM in assay [2] (setting [8]).
In the case of `CNC(=O)c1ccccc1N(C)c1nc(Nc2ccc3c(c2)CN(C)C(=O)CC3)ncc1F` [Example 1800, 2-{[5-Fluoro-2-(2-methyl-3-oxo-2,3,4,5-tetrahydro-1H-benzo[c]azepin-8-ylamino)-pyrimidin-4-yl]-methyl-amino}-N-methyl-benzamide], the IC50 in assay [1] (setting [3]) is 1000 to 10000 nM; in assay [2] (setting [4]), below 100 nM.
`CCN1C(=O)CCCc2c1ccc(Nc1ncc(Cl)c(Nc3ccc(N(C)C)cc3OC)n1)c2OC` [Example 1339, 7-[5-Chloro-4-(4-dimethylamino-2-methoxy-phenylamino)-pyrimidin-2-ylamino]-1-ethyl-6-methoxy-1,3,4,5-tetrahydro-benzo[b]azepin-2-one]: the IC50 in assay [1] (setting [9]) is 100 to 1000 nM; in assay [2] (setting [10]), above 10000 nM.
In the case of `CCN1CCCC(C)(C)c2ccc(Nc3ncc(Cl)c(Nc4c(F)cccc4C(=O)NC)n3)cc21` [Example 1632, 2-[5-Chloro-2-(1-ethyl-5,5-dimethyl-2,3,4,5-tetrahydro-1H-benzo[b]azepin-8-ylamino)-pyrimidin-4-ylamino]-3-fluoro-N-methyl-benzamide], the IC50 in assay [1] (setting [3]) and in assay [2] (setting [4]) was 100 to 1000 nM each time.
Turning to `CCN1C(=O)C(N)CCc2c1ccc(Nc1ncc(Cl)c(Nc3ccccc3S(=O)(=O)C(C)C)n1)c2OC` (stereo not shown) [Example 1337, 3-Amino-7-{5-chloro-4-[2-(propane-2-sulfonyl)-phenylamino]-pyrimidin-2-ylamino}-1-ethyl-6-methoxy-1,3,4,5-tetrahydro-benzo[b]azepin-2-one], the IC50 is below 100 nM in assay [1] (setting [9]) and above 10000 nM in assay [2] (setting [10]).
Turning to `COc1ccc(Nc2nc(Nc3cc4c(cc3OC)CCN(CC(=O)N(C)C)CC4)ncc2Cl)c(N(C)C)c1` [Example 826, 2-{7-[5-Chloro-4-(2-dimethylamino-4-methoxy-phenylamino)-pyrimidin-2-ylamino]-8-methoxy-1,2,4,5-tetrahydro-benzo[d]azepin-3-yl}-N,N-dimethyl-acetamide], the figures for the IC50 in assay [1] (setting [5]) and in assay [2] (setting [6]) were below 100 nM and above 10000 nM, respectively.
On the same counts, the results for `CCN1CCN(CC)c2cc(Nc3ncc(Cl)c(Nc4ccccc4S(=O)(=O)N(C)C)n3)ccc2C1` [Example 730, 2-[5-Chloro-2-(1,4-diethyl-2,3,4,5-tetrahydro-1H-benzo[e][1,4]diazepin-8-ylamino)-pyrimidin-4-ylamino]-N,N-dimethyl-benzenesulfonamide] are below 100 nM and below 100 nM.
With `CNC(=O)c1cccc(F)c1Nc1nc(Nc2ccc3c(c2)C(=O)NCCC3)ncc1Cl` [Example 400, 2-[5-Chloro-2-(1-oxo-2,3,4,5-tetrahydro-1H-benzo[c]azepin-8-ylamino)-pyrimidin-4-ylamino]-3-fluoro-N-methyl-benzamide], the IC50 in assay [1] (setting [7]) and in assay [2] (setting [8]) was 100 to 1000 nM in each case.
For `CCC(=O)OCCN1CCc2cc(Nc3ncc(Cl)c(Nc4ccccc4S(=O)(=O)N(C)C)n3)c(OC)cc2CC1` [Example 1546, Propionic acid 2-{7-[5-chloro-4-(2-dimethylsulfamoyl-phenylamino)-pyrimidin-2-ylamino]-8-methoxy-1,2,4,5-tetrahydro-3-benzazepin-3-yl}-ethyl ester], the IC50 in assay [1] (setting [3]) is below 100 nM; in assay [2] (setting [4]), 1000 to 10000 nM.
The like results for `CCN1CC(=O)N(CC)c2cc(Nc3ncc(Cl)c(Nc4ccsc4C(=O)NC)n3)ccc2C1` [Example 1856, 3-[5-Chloro-2-(1,4-diethyl-2-oxo-2,3,4,5-tetrahydro-1H-benzo[e][1,4]diazepin-8-ylamino)-pyrimidin-4-ylamino]-thiophene-2-carboxylic acid methylamide] were, in that order, below 100 nM and below 100 nM.
On to `CCOC(=O)N1CCCOc2cc(Nc3ncc(Cl)c(Nc4ccccc4C(=O)NC)n3)ccc21` [Example 1419, 3-[5-Chloro-4-(2-methylcarbamoyl-phenylamino)-pyrimidin-2-ylamino]-7,8-dihydro-6H-5-oxa-9-aza-benzocycloheptene-9-carboxylic acid ethyl ester], for which the IC50 in assay [1] (setting [9]) and in assay [2] (setting [10]) was below 100 nM each time.
With `COc1ccccc1Nc1nc(Nc2cccc3c2OCCCC3)ncc1Cl` [Example 864, 5-Chloro-N*4*-(2-methoxy-phenyl)-N*2*-(2,3,4,5-tetrahydrobenzo[b]oxepin-9-yl)-pyrimidine-2,4-diamine], the IC50 in assay [1] (setting [5]) is 1000 to 10000 nM; in assay [2] (setting [6]), above 10000 nM.
For `COc1cc2c(cc1Nc1ncc(Cl)c(Nc3ccccc3S(=O)(=O)N(C)C)n1)CCN(CCN1CCOCC1)CC2` [Example 1522, 2-{5-Chloro-2-[8-methoxy-3-(2-morpholin-4-yl-ethyl)-2,3,4,5-tetrahydro-1H-3-benzazepin-7-ylamino]-pyrimidin-4-ylamino}-N,N-dimethyl-benzenesulfonamide], the IC50 is below 100 nM in assay [1] (setting [3]) and 1000 to 10000 nM in assay [2] (setting [4]).
As to `COCCNC1CCCc2c(ccc(Nc3ncc(Cl)c(Nc4ccccc4S(=O)(=O)C(C)C)n3)c2OC)C1` (stereo not shown) [Example 959, 5-Chloro-N(2)-[1-methoxy-6-(2-methoxy-ethylamino)-6,7,8,9-tetrahydro-5H-benzocyclohepten-2-yl]-N(4)-[2-(propane-2-sulfonyl)-phenyl]-pyrimidine-2,4-diamine], the IC50 is below 100 nM in assay [1] (setting [5]) and above 10000 nM in assay [2] (setting [6]).
With `CNC(=O)c1ccccc1Nc1nc(Nc2ccc3c(c2)C2CCC3CN(CC#N)C2)ncc1Cl` (stereo not shown) [Example 281, 2-[5-Chloro-2-(10-cyanomethyl-10-aza-tricyclo[6.3.2.0*2,7*]trideca-2,4,6-trien-4-ylamino)-pyrimidin-4-ylamino]-N-methyl-benzamide], the IC50 in assay [1] (setting [7]) and in assay [2] (setting [8]) was below 100 nM each time.
As to `CN1C(=O)OCCc2cc(Nc3ncc(Cl)c(Nc4ccccc4-n4cccn4)n3)ccc21` [Example 1766, 2-[5-Chloro-4-(2-pyrazol-1-yl-phenylamino)-pyrimidin-2-ylamino]-5-methyl-8,9-dihydro-5H-7-oxa-5-aza-benzocyclohepten-6-one], the results for the IC50 in assay [1] (setting [3]) and in assay [2] (setting [4]) were below 100 nM and 100 to 1000 nM, respectively.
Turning to `COCCNC1CCc2ccc(Nc3ncc(Cl)c(N[C@@H]4CCCC[C@H]4NS(C)(=O)=O)n3)c(OC)c2CC1` (single isomer, unassigned) [Example 694], the results for the IC50 in assay [1] (setting [5]) and in assay [2] (setting [6]) were below 100 nM and above 10000 nM, respectively.
`CCN1CC(=O)Nc2cc(Nc3ncc(Cl)c(N[C@H]4[C@@H](C(N)=O)[C@@H]5C=C[C@H]4C5)n3)c(OC)cc2C1` [Example 1663, (1S,2S,3R,4R)-3-[5-Chloro-2-(4-ethyl-7-methoxy-2-oxo-2,3,4,5-tetrahydro-1H-benzo[e][1,4]diazepin-8-ylamino)-pyrimidin-4-ylamino]-bicyclo-[2.2.1]hept-5-ene-2-carboxylic acid amide]: the IC50 in assay [1] (setting [3]) is below 100 nM; in assay [2] (setting [4]), above 10000 nM.
On the same counts, the results for `CS(=O)(=O)N[C@@H]1CCCC[C@H]1Nc1nc(Nc2cc(F)cc3c2OCCNC3=O)ncc1Cl` [Example 1683, N-{(1R,2R)-2-[5-Chloro-2-(7-fluoro-5-oxo-2,3,4,5-tetrahydro-benzo[f][1,4]oxazepin-9-ylamino)-pyrimidin-4-ylamino]-cyclohexyl}-methanesulfonamide] are 100 to 1000 nM and above 10000 nM.
On the same counts, the results for `COCCOc1cccc(F)c1Nc1nc(Nc2ccc3c(c2)CCN(CCOC)CC3)ncc1Cl` [Example 1696, 5-Chloro-N*4*-[2-fluoro-6-(2-methoxy-ethoxy)-phenyl]-N*2*-[3-(2-methoxy-ethyl)-2,3,4,5-tetrahydro-1H-benzo[d]azepin-7-yl]-pyrimidine-2,4-diamine] are below 100 nM and 100 to 1000 nM.
